Assay results published in publication doi:10.1101/2025.04.13.648610v1, “Catalytic Mechanism and Differential Alarmone Regulation of a Conserved Stringent Nucleosidase” (biorxiv, 2025).
Where a chain is given by its changes, count along the chain named.

How the values were obtained:
Assay type in all cases: binding
PpnN (previously YgdH) [1] = target: T1, PpnN (previously YgdH) (Escherichia coli, UniProt P0ADR8); experiment: X-ray crystal structure […] Å
T1 construct: full length, N-terminal His6 tag, plasmid pCA24N-ppnN, expressed in E. coli BL21(DE3) ppnN::kan; homotetramer; domains PAG1 1-150, catalytic 151-329, PAG2 330-454
T1 sequence (P0ADR8 1-454): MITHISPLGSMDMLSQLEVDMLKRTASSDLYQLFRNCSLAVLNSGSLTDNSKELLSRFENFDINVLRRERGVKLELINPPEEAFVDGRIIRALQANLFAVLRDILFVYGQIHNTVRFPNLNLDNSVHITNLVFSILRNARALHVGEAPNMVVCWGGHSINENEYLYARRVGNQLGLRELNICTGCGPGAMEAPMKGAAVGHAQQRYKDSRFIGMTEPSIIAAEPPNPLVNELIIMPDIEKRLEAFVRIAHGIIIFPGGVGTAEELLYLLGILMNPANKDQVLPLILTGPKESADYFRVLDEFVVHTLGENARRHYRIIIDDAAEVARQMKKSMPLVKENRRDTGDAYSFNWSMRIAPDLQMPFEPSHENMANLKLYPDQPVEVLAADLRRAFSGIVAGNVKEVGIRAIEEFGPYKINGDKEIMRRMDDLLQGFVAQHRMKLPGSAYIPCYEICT

PpnN (previously YgdH) [2] = target: T1, PpnN (previously YgdH); experiment: X-ray crystal structure
PpnN (previously YgdH) [3] = target: T2, PpnN (previously YgdH) (Escherichia coli, UniProt P0ADR8, E264A); experiment: X-ray crystal structure […] Å
T2 construct: full length, N-terminal His6 tag, plasmid pCA24N-ppnN, expressed in E. coli BL21(DE3) ppnN::kan; homotetramer; domains PAG1 1-150, catalytic 151-329, PAG2 330-454
T2 sequence (P0ADR8 1-454 E264A): T1 sequence (P0ADR8 1-454) with E264A

Nc1nc2c([C@@H]3O[C@H](COP(=O)(O)O)[C@@H](O)[C@H]3O)c[nH]c2c(=O)[nH]1 [9-deaza-GMP]
X-ray crystal structure 3.4 Å (PpnN (previously YgdH) [1]; second dimer interface (two sites per tetramer), not the active site, with ppGpp): an elongated electron density was found into which 9dG could be modelled

Nc1nc2[nH]cnc2c(=O)[nH]1 [guanine]
X-ray crystal structure (PpnN (previously YgdH) [2]; active sites of the three open monomers, carried over, GMP not added, modelled into density): guanine into the smaller densities

Nc1nc2c(ncn2[C@@H]2O[C@H](COP(=O)(O)OP(=O)(O)O)[C@@H](OP(=O)(O)OP(=O)(O)O)[C@H]2O)c(=O)[nH]1 [ppGpp]
X-ray crystal structure 3.4 Å (PpnN (previously YgdH) [1]; allosteric alarmone site at dimer interface, four of four sites, with 9-deaza-GMP): All four canonical alarmone binding sites are occupied by ppGpp

Nc1nc2c(ncn2[C@@H]2O[C@H](COP(=O)(O)OP(=O)(O)OP(=O)(O)O)[C@@H](OP(=O)(O)OP(=O)(O)O)[C@H]2O)c(=O)[nH]1 [pppGpp]
X-ray crystal structure (PpnN (previously YgdH) [2]; allosteric alarmone site at dimer interface, three of four sites): pppGpp was bound to three out of four PpnN molecules | X-ray crystal structure 3.5 Å (PpnN (previously YgdH) [3]; allosteric alarmone site at dimer interface, four of four sites, co-crystallised with GMP): all four alarmone sites are occupied by pppGpp

O=P(O)(O)OC[C@H]1OC(O)[C@H](O)[C@@H]1O (stereo partly shown) [ribose 5-phosphate]
X-ray crystal structure (PpnN (previously YgdH) [2]; active site of the partially open monomer, carried over, GMP not added, modelled into density): ribose-5-phosphate (R5P) into the bilobed density | X-ray crystal structure 3.5 Å (PpnN (previously YgdH) [3]; active site, four of four, from GMP added to the crystallisation): likely corresponding to the product, R5P
